According to US8575116B1, “Polyacetylenic compounds for protecting against pancreatic islet atrophy” (Academia Sinica, priority 2010, dated 2013):

Experiments:
db/db mice [1] = test: Blood insulin after a single oral dose in fed diabetic db/db mice; format: in vivo, mouse; conditions: for blood insulin levels compared to vehicle, effect in words: single dose, db/db mice; for Blood insulin level: fed db/db mice
Method: (§1) After 0.5 h, the levels of postprandial blood sugar and insulin from the mice were monitored for additional 4 h. For continued administration, diabetic db/db males were grouped and tube-fed with vehicle, cytopiloyne (0.5 or 2.5 mgkg^−1 day^−1) or glimepiride (2.5 mg kg^−1 day^−1) for the indicated time, while levels of blood sugar, insulin, and glycosylated HbA1c, and glucose tolerance in these mice were determined. To evaluate the prophylaxis of diabetes, diabetes-free db/db mice at 4 weeks of age were tube-fed with vehicle or cytopiloyne (CP, 0.5 mgkg^−1), once a day, for 4 weeks. Unless indicated otherwise, the mice were fasted for 16 h, then Postprandial blood glucose and insulin in these mice were measured.
(§2) Glucose levels in mouse blood samples were measured using an Elite® glucometer (Bayer, Pittsburgh, Pa., USA). Insulin levels in blood samples or islet cell supernatants were determined by ELISA assays (Mercodia, Uppsala, Sweden). The levels of glycosylated HbA1c in mouse blood samples were measured using DCA 2000 analyzer (Bayer, Pittsburgh, Pa., USA).
The same procedure as Table 1 was performed. Blood samples at the indicated time interval (0, 0.5, 1, 2, and 4 h) were collected from the retro-orbital vein of those mice and the insulin levels in each blood sample were determined using ELISA kits. The number of mice used (n) is indicated in parentheses in the first column.

[2] = Body weight of db/db mice during treatment; format: in vivo, mouse
Method: Tables 3 and 4 show the effects of cytopiloyne on body weight and food intake in db/db mice, respectively. Diabetic db/db mice at 6 to 8 weeks of age were allowed free access to food. These mice were treated with vehicle, glimepiride (GLM, 2.5 mg/kg/day), or cytopiloyne (CP, 0.5 and 2.5 mg/kg/day). Mean body weight and food intake of each group were measured from 0 to 6 weeks post-treatment. The number of mice (n) is indicated in parentheses.

adiponectin = test: Real-time RT-PCR of adiponectin mRNA relative to GAPDH in 3T3-L1 cells; format: cell-based, mouse
[3] = tested on: pancreatic islets of db/db mice; test: Pancreatic islet histology/immunohistochemistry in db/db mice; format: in vivo, mouse; conditions: for pancreatic islet structure after long-term treatment: db/db mice 12 to 14 weeks old, cytopiloyne 0.5 and 2.5, glimepiride 2.5 mgkg^−1 day^−1 (FIG. 1F)
Method: (§3) FIGS. 1A-F show the anti-diabetic effects of cytopiloyne in db/db mice during long-term treatment. (A) Chemical structure of cytopiloyne (2-β-D-glucopyranosyloxy-1-hydroxytrideca-5,7,9,11-tetrayne). (B) Four groups of 6-to-8-week-old diabetic db/db mice were tube-fed with vehicle, cytopiloyne (CP, 0.5 and 2.5 mgkg^−1 day^−1) or glimepiride (GLM, 2.5 mgkg^−1 day^−1) from 0 to 42 days post-treatment. Blood glucose (BG) levels in these mice were measured. (C) Blood insulin levels from the mice of FIG. 1B. (D) IPGTT was performed in the db/db mice of FIG. 1B on day 0, 28 and 42, and blood glucose levels were monitored for 3.5 h. (E) The percentage of glycosylated HbAlc of whole blood from the mice of FIG. 1B on day 0 and 42. (F) Pancreata of 8- and 16-week-old db/db males, which had received the same treatment as FIG. 1B for 2 (images a-h) and 10 (images i-p) weeks, were stained with hematoxylin and eosin (H&E, images a, c, e, g, i, k, m and o) or hematoxylin and anti-insulin (H&I, images b, d, f, h, j, l, n and p). The arrowheads indicate pancreatic islets. Scale bars, 200 μm. Results from 3 independent experiments are expressed as mean±SEM, and P<0.05 was considered to be statistically significant (*). The number of mice (n) is indicated in parentheses.
Pancreata from db/db males with continuous drug administration were snap frozen in OCT™ compound and stained with hematoxylin and eosin or anti-insulin antibody, followed by diaminobenzidine tetrahydrochloride development. Multiple parallel sections of each pancreas were analyzed by light microscopy.

db/db mice [4] = test: Glycosylated HbA1c in db/db mice after long-term treatment; format: in vivo, mouse
Method: as §3, §1, §2

db/db mice [5] = test: Blood glucose after a single oral dose in fed diabetic db/db mice; format: in vivo, mouse; conditions: for postprandial blood glucose levels, effect in words: single dose, cytopiloyne 0.1, 0.5 and 2.5 mgkg^−1, glimepiride 2.5 mgkg^−1, diabetic db/db mice; for Blood glucose level: fed db/db mice
Method: as §1, §2
Diabetic db/db mice aged 6 to 8 weeks were grouped, fasted for 12 h, allowed free access to food for 2 h, and removed from food. One half hour after food removal was set as time 0. Postprandial blood was collected from the tail vein of the mice, tube-fed with vehicle, glimepiride (GLM) at 2.5 mg/kg/day and cytopiloyne (CP) at 0.1, 0.5 and 2.5 mg/kg/day. Blood samples were collected at the indicated time intervals (0, 1, 2 and 4 h). The blood glucose levels were determined using a glucometer. The number of mice tested (n) is indicated in parentheses in the first column.

[6] = tested on: adipocyte protein 2 (aP2); test: Real-time RT-PCR of aP2 mRNA relative to GAPDH in 3T3-L1 cells; format: cell-based, mouse
[7] = single oral dose 0.1 mg/kg, 0 h
[8] = single oral dose 0.1 mg/kg, 1 h
[9] = single oral dose 0.1 mg/kg, 2 h
[10] = single oral dose 0.1 mg/kg, 4 h
[11] = single oral dose 0.5 mg/kg, 0 h
[12] = single oral dose 0.5 mg/kg, 1 h
[13] = single oral dose 0.5 mg/kg, 2 h
[14] = single oral dose 0.5 mg/kg, 4 h
[15] = single oral dose 2.5 mg/kg, 0 h
[16] = single oral dose 2.5 mg/kg, 0.5 h
[17] = single oral dose 2.5 mg/kg, 1 h
[18] = single oral dose 2.5 mg/kg, 2 h
[19] = single oral dose 2.5 mg/kg, 4 h
[20] = 2.5 mgkg^−1 day^−1, day 42, db/db mice 12 to 14 weeks of age (untreated 7.3%)
[21] = 2.5 mgkg^−1 day^−1, versus untreated db/db mice

## CC#CC#CC#CC#CCCC(CO)O[C@@H]1O[C@H](CO)[C@@H](O)[C@H](O)[C@H]1O (stereo partly drawn) [cytopiloyne, 2-β-D-glucopyranosyloxy-1-hydroxytrideca-5,7,9,11-tetrayne]
db/db mice [1]
  blood insulin levels compared to vehicle, effect in words: significantly elevated the blood insulin levels
db/db mice [1]; [7]
  Blood insulin level: 17.2 ± 4.7 µg/L
db/db mice [1]; single oral dose 0.1 mg/kg, 0.5 h
  Blood insulin level: 21.0 ± 1.3 µg/L
db/db mice [1]; [8]
  Blood insulin level: 15.5 ± 0.6 µg/L
db/db mice [1]; [9]
  Blood insulin level: 14.1 ± 0.5 µg/L
db/db mice [1]; [10]
  Blood insulin level: 9.7 ± 1.3 µg/L
db/db mice [1]; [11]
  Blood insulin level: 15.7 ± 1.9 µg/L
db/db mice [1]; single oral dose 0.5 mg/kg, 0.5 h
  Blood insulin level: 22.6 ± 1.9 µg/L
db/db mice [1]; [12]
  Blood insulin level: 16.0 ± 2.4 µg/L
db/db mice [1]; [13]
  Blood insulin level: 12.8 ± 0.7 µg/L
db/db mice [1]; [14]
  Blood insulin level: 12.2 ± 1.9 µg/L
db/db mice [1]; [15]
  Blood insulin level: 12.5 ± 1.2 µg/L
db/db mice [1]; [16]
  Blood insulin level: 25.5 ± 1.2 µg/L
db/db mice [1]; [17]
  Blood insulin level: 18.9 ± 3.3 µg/L
db/db mice [1]; [18]
  Blood insulin level: 17.6 ± 1.7 µg/L
db/db mice [1]; [19]
  Blood insulin level: 8.9 ± 2.1 µg/L
[2]; 0.5 mg/kg/day, week 0
  Mean body weight: 28.2 ± 3.0 g/mouse
[2]; 0.5 mg/kg/day, week 1
  Mean body weight: 29.7 ± 3.1 g/mouse
[2]; 0.5 mg/kg/day, week 2
  Mean body weight: 32.3 ± 3.3 g/mouse
[2]; 0.5 mg/kg/day, week 4
  Mean body weight: 34.1 ± 2.9 g/mouse
[2]; 0.5 mg/kg/day, week 6
  Mean body weight: 34.8 ± 2.8 g/mouse
[2]; 2.5 mg/kg/day, week 0
  Mean body weight: 27.1 ± 2.4 g/mouse
[2]; 2.5 mg/kg/day, week 1
  Mean body weight: 30.0 ± 2.5 g/mouse
[2]; 2.5 mg/kg/day, week 2
  Mean body weight: 31.7 ± 1.5 g/mouse
[2]; 2.5 mg/kg/day, week 4
  Mean body weight: 33.3 ± 4.1 g/mouse
[2]; 2.5 mg/kg/day, week 6
  Mean body weight: 36.4 ± 3.7 g/mouse
[2]; 6-week-treatment
  body weight compared to control mice, in words: did not significantly increase body weight
adiponectin; 5, 25 and 50 μM, 3T3-L1 cells
  adiponectin expression: slight reduction in adiponectin expression
[3]
  pancreatic islet structure after long-term treatment: much greater preservation of islet structure
[3]; low dose 0.5 mgkg^−1 day^−1, db/db mice (FIG. 1F)
  protection against islet atrophy: protected against islet atrophy
db/db mice [4]; 0.5 mgkg^−1 day^−1, day 42, db/db mice 12 to 14 weeks of age (untreated 7.3%)
  HbA1c glycosylated in the blood: 6%
db/db mice [4]; 0.5 mgkg^−1 day^−1, versus untreated db/db mice
  decrease of glycosylated HbA1c: 1.3%
db/db mice [4]; [20]
  HbA1c glycosylated in the blood: 5.6%
db/db mice [4]; [21]
  decrease of glycosylated HbA1c: 1.7%
db/db mice [5]
  postprandial blood glucose levels, effect in words: significantly reduced postprandial blood glucose levels
db/db mice [5]; [7]
  Blood glucose level: 373 ± 6 mg/dL
db/db mice [5]; [8]
  Blood glucose level: 267 ± 12 mg/dL
db/db mice [5]; [9]
  Blood glucose level: 204 ± 17 mg/dL
db/db mice [5]; [10]
  Blood glucose level: 158 ± 18 mg/dL
db/db mice [5]; [11]
  Blood glucose level: 369 ± 27 mg/dL
db/db mice [5]; [12]
  Blood glucose level: 214 ± 15 mg/dL
db/db mice [5]; [13]
  Blood glucose level: 163 ± 8 mg/dL
db/db mice [5]; [14]
  Blood glucose level: 132 ± 11 mg/dL
db/db mice [5]; [15]
  Blood glucose level: 365 ± 9 mg/dL
db/db mice [5]; [17]
  Blood glucose level: 207 ± 11 mg/dL
db/db mice [5]; [18]
  Blood glucose level: 147 ± 12 mg/dL
db/db mice [5]; [19]
  Blood glucose level: 129 ± 11 mg/dL
[6]; 5, 25 and 50 μM, 3T3-L1 cells
  aP2 expression: little effect on aP2 expression

## CCC1=C(C)CN(C(=O)NCCc2ccc(S(=O)(=O)NC(=O)N[C@H]3CC[C@H](C)CC3)cc2)C1=O [glimepiride, reference compound]
db/db mice [1]
  blood insulin levels compared to vehicle, effect in words: significantly elevated the blood insulin levels
db/db mice [1]; [15]
  Blood insulin level: 13.9 ± 1.2 µg/L
db/db mice [1]; [16]
  Blood insulin level: 19.3 ± 4.2 µg/L
db/db mice [1]; [17]
  Blood insulin level: 26.3 ± 3.3 µg/L
db/db mice [1]; [18]
  Blood insulin level: 15.9 ± 1.7 µg/L
db/db mice [1]; [19]
  Blood insulin level: 11.8 ± 2.1 µg/L
[2]; 2.5 mg/kg/day, week 0
  Mean body weight: 26.9 ± 1.2 g/mouse
[2]; 2.5 mg/kg/day, week 1
  Mean body weight: 30.3 ± 2.7 g/mouse
[2]; 2.5 mg/kg/day, week 2
  Mean body weight: 30.7 ± 3.0 g/mouse
[2]; 2.5 mg/kg/day, week 4
  Mean body weight: 35.2 ± 1.8 g/mouse
[2]; 2.5 mg/kg/day, week 6
  Mean body weight: 36.3 ± 2.1 g/mouse
adiponectin; mouse, 8 days, 10 μM
  adiponectin expression level, times control levels: 9 times
[3]
  pancreatic islet structure after long-term treatment: sporadic islets
[3]; listed as Glimepiride
  pancreatic islet structure after long-term treatment: failed to provide such a protection
db/db mice [4]; [20]
  HbA1c glycosylated in the blood: 6.3%
db/db mice [4]; [21]
  decrease of glycosylated HbA1c: 1%
db/db mice [5]
  postprandial blood glucose levels, effect in words: significantly reduced postprandial blood glucose levels
db/db mice [5]; [15]
  Blood glucose level: 378 ± 9 mg/dL
db/db mice [5]; [17]
  Blood glucose level: 237 ± 16 mg/dL
db/db mice [5]; [18]
  Blood glucose level: 178 ± 20 mg/dL
db/db mice [5]; [19]
  Blood glucose level: 187 ± 6 mg/dL
[6]; mouse, 8 days, 10 μM
  aP2 expression, times of the control: 31 times
